Source: patent US11492325B2, “Compounds as inhibitors of sodium channels” (Human BioMolecular Research Institute, priority 2016, dated 2022)
Values joined by “and” are separate entries in the source; they are usually repeats but may differ in a detail not shown here. Equal values may be shown once. Read-outs that look alike come from different tables or passages of the source.

Assays:
[1] = target: Nav1.5 sodium channel transfected into HEK293 cells (Homo sapiens, UniProt Q14524); assay: Patch clamp electrophysiology, peak (INaP) and late (INaL) sodium current in transfected cells
Method in brief: (§1)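 Conventional whole-cell patch clamp was performed on HEK293 cells transfected with Nav1.5 and plated on 0.1% gelatin-coated dishes. Values were reported as IC50 ± STD.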

[2] = target: Nav1.5 sodium channel, peak current (INaP) (Homo sapiens, UniProt Q14524, form not given); assay: in vitro
Method in brief: as §1

Male BALBc mice = conditions: for tolerability: 30-100 mg/kg, 24 hr
Source text: Male BALBc mice (20-22 g) were used throughout these studies. The animals were maintained in a temperature-controlled room with 12-hr periods of light and darkness and had continuous access to water and animal food. […] Groups contained 2-4 animals.

[3] = Solubility (water; 10:30:60% DMSO:PEG400:water vehicle); format: physicochemical
[4] = test system: normal human induced pluripotent stem cell (hiPSC) cardiomyocyte; conditions: for WT-Fold Prolongation: APD
[5] = test system: cardiomyocytes derived from hiPSCs from a LQTS3 patient
[6] = target: T1, hERG potassium channel (IKr) (Homo sapiens, UniProt Q12809)
[7] = target: T1, hERG potassium channel (IKr); assay: Automated patch clamp, hERG (IKr) expressed in CHO cells; conditions: for IC50: hERG (IKr) IC50, CHO cells
[8] = Metabolism in human hepatic S9; conditions: for Human S-9, nmol metab./incub.: 0.4 mg protein/incubation, 30 mins, 37° C.
Experimental: (§2) A typical incubation contained rat, mouse, dog or human liver microsomes (0.4-0.5 mg of protein), 100 mM potassium phosphate buffer (pH7.4), 50 μM test compound, an NADPH-generating system consisting of 0.5 mM NADP^+, 0.5 mM glucose-6-phosphate, 1 IU/mL glucose-6-phosphate dehydrogenase, 1 mg/mL diethylenetriaminepentaaceticacid (DETAPAC), and 3 mM MgCl2 in a final incubation volume of 0.25 mL. […] After centrifugation at 3000 rpm for 5 min, the organic fraction was collected, the solvent was removed with a stream of argon and the residue was reconstituted in 125 μL of MeOH and 125 μL H2O, mixed thoroughly, centrifuged at 13,000 rpm for 5 min and analyzed by high performance liquid chromatography. Samples were run on a Hitachi D-7000 HPLC system using a L-7100 analytical pump, L-7400 UV-Visible variable wavelength detector, and L-7600 automatic sample injector. […] Disappearance of the analyte was monitored over time. A plot of the area under the curve for the normalized analyte versus time afforded the half-life values and kapp.
(§3) Microsomes contain CYPs and FMO metabolic enzymes. S9 contains soluble enzymes (i.e., aldehyde oxidase, MAO, etc.).

[9] = Metabolism in mouse hepatic S9; conditions: 0.4 mg protein/incubation; 30 mins, 37° C.
Experimental: as §2, §3

CYP3A4 = CYP3A4 (Homo sapiens, UniProt P08684); assay: Metabolism with highly purified CYP3A4 (HPLC); conditions: 3 pmol enzyme/incubation; 30 mins, 37° C.
Human FMO1 = target: T2, Human FMO1 (Homo sapiens, UniProt Q01740); assay: Metabolism with human FMO1 (nmol metabolism/incubation); conditions: 15 μg enzyme/incubation; 30 mins, 37° C.
T2 sequence (Q01740 1-532): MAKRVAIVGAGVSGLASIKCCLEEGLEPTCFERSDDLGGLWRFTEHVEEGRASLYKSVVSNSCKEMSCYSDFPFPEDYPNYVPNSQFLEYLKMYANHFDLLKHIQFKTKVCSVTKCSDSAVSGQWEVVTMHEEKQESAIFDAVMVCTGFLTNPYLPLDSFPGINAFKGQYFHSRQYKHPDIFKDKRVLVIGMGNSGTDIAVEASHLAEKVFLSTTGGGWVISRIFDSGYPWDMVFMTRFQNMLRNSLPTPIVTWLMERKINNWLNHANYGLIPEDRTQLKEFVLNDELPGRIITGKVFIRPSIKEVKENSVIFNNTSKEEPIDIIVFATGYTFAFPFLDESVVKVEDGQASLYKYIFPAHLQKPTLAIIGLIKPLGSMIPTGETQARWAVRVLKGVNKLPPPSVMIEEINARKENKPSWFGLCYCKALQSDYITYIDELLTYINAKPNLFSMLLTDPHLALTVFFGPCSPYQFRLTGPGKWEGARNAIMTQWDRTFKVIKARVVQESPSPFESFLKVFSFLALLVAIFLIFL

[10] = target: Na+ channel currents in LQT3 patient-derived cardiomyocytes (Homo sapiens, UniProt Q14524); assay: Whole cell patch clamp of Na+ currents (INaP, INaL) in hIPSC LQT3 patient-derived cardiomyocytes; format: cell-based; conditions: for IC50: whole-cell voltage clamp, steps -80 mV to +40 mV, table title says transfected CHO cells
Experimental: Patch clamp recordings from hIPSC LQT3 patient-derived cardiomyocytes for Na+ channel currents were recorded in response to computed voltage waveforms that simulated adult ventricular action potentials.
The basis for LQT3 is a mutation in SCN5a that encodes the voltage-gated Na channel responsible for cardiac action potential. The Na current (INa) has peak and late components: the peak component initiates the action potential but as voltage rises, the channel normally inactivates. […] The LQT3 mutation impairs inactivation. The late component is then enlarged, resulting in action potential prolongation. […] Whole cell patch clamp electrophysiology experiments in LQTS3 cardiomyocytes helped determine the functional activity of drug candidates for inhibition of the late sodium current in the cells. Thus, we tested compounds for Peak (INaP) and Late (INaL) components. They were recorded in a “whole-cell” voltage-clamp mode configuration in response to voltage stimulation steps from −80 mV to +40 mV and their IC50 values determined (Table 1).

[11] = Metabolic stability in human liver microsomes; format: in vitro ADME
Experimental: as §2

[12] = Chemical stability in PBS buffer at pH 7.4 or 3.0, 37° C.; format: physicochemical; conditions: pH 7.4, 100 μM in PBS, 1% Ethanol, read-out: Half-Life @ pH 7.4 and 37° C.
Experimental: A typical incubation contained 100 μM of the test compound prepared in PBS buffer (pH 7.4 or 3.0, 50 mM) with 1% Ethanol. The test compounds were incubated at 37° C. An aliquot from incubations was taken at various times and injected onto an RP-HPLC system as described above. Disappearance of the analyte was monitored over time.

CYP2D6 = CYP2D6 (Homo sapiens, UniProt P10635); assay: Metabolism with highly purified CYP2D6 (HPLC); conditions: 50 min incubation
Experimental: as §2
Accordingly, we examined the metabolism of leads with highly purified CYPs with an HPLC method (Example 8).

[13] = test system: cardiomyocytes derived from hiPSCs from a LQTS3 patient; assay: cells; conditions: Homo sapiens, Cardiomyocyte; for IC50: read-out: LQT-IC50 (uM)-Shortening
[14] = ratio peak/late IC50, Example 2
[15] = 'No AP' wraps to 'No AP shortening'

T1 sequence (Q12809 whole entry): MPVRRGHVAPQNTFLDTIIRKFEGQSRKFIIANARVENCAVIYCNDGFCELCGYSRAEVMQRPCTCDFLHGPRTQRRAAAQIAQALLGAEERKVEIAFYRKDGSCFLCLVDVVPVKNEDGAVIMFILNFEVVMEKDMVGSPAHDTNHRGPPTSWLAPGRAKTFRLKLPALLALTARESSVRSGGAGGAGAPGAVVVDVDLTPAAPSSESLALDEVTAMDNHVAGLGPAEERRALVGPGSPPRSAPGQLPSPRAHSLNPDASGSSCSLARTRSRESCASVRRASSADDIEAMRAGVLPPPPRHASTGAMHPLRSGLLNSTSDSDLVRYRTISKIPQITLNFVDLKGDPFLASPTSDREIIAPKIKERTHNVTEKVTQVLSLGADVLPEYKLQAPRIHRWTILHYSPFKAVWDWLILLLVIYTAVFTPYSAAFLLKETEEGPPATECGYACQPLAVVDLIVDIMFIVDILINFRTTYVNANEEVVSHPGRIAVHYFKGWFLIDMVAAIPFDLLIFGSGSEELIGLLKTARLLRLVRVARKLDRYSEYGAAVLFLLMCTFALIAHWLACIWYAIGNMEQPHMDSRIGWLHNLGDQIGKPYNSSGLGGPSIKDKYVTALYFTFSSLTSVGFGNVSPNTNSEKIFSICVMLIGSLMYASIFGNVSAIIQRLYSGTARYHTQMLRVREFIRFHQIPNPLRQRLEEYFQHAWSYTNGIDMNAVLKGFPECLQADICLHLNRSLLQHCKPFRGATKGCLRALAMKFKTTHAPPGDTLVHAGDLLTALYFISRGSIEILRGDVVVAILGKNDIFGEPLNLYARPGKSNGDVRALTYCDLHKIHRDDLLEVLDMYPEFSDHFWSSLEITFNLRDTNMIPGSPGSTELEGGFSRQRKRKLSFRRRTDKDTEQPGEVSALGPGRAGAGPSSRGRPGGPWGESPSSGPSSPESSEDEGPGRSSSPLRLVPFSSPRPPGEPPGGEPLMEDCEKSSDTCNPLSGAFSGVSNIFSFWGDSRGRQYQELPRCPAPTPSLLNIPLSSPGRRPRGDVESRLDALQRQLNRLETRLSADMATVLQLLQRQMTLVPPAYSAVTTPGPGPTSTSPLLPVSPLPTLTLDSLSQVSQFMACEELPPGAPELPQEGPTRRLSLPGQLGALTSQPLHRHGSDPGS
Sequence of CYP2D6 (P10635 whole entry): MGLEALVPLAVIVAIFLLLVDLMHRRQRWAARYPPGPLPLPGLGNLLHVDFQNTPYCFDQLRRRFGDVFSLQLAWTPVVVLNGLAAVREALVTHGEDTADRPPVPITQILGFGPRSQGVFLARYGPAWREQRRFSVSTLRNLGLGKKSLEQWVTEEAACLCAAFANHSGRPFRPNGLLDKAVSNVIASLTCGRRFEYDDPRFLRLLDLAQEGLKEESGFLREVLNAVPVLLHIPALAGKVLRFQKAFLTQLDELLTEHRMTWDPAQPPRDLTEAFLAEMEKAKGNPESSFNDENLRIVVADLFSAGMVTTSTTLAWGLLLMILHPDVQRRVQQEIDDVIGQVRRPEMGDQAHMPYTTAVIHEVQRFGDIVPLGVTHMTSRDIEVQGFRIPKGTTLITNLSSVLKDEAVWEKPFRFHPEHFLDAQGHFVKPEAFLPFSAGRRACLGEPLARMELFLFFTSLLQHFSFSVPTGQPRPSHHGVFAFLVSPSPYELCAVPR
Sequence of CYP3A4 (P08684 whole entry): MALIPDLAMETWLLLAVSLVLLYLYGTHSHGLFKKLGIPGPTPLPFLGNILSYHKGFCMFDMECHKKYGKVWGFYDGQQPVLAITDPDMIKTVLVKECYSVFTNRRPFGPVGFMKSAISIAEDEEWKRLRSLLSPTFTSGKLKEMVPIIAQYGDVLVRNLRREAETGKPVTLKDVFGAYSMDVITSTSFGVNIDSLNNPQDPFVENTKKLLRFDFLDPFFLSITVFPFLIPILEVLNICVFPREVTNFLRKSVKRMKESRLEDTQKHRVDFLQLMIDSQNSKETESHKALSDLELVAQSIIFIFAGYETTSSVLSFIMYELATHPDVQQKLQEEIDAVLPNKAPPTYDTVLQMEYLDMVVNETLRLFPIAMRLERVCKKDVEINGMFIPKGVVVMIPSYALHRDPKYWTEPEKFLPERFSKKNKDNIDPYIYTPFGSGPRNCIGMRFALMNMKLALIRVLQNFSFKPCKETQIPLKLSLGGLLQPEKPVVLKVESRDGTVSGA

## COCCNC(COc1cc(C)cc(C)c1)c1ccccc1.Cl (stereo not drawn) [Compound 69]
[1]; ratio peak IC50/late IC50
  DNap/NaL: 45.3
[1]; [14]
  DNap/NaL: 50.5
[2]; Peak Na+ (INaP) IC50
  IC50: 38.3 µM
Male BALBc mice; mice, i.p.
  behavioral/toxic effects at 200 mg/kg: slight lethargy
  tolerability: well-tolerated
[3]
  solubility (in words): good solubility
[4]; normal hiPSC cardiomyocytes
  WT-Fold Prolongation: None
  WT-Prolongation Dose: None
[4]; human, 5 min
  Cessation of Beating: 200 µM
[5]; APD shortening, LQT3 cardiomyocytes
  LQT-IC50 (uM)-Shortening: None
[5]; LQT3 cardiomyocytes
  LQT-Fold Shortening: None
  LQT-Shortening Dose: None
[5]; human, 5 min
  LQT-Cessation Dose: 200 µM
[6]
  DNaP/Kr: 7.5
[7]
  IC50: 5.1 µM
[7]; Example 2
  IC50: 5.1 µM

## Cc1cccc(C)c1OCC(N)c1ccccc1 (racemic) [Phenyl Mexiletine]
[8]
  Human S-9, nmol metab./incub.: 1.2 nmol metab./incub.
[9]
  Mouse S-9, nmol metab./incub.: 2.5 nmol metab./incub.
CYP3A4
  Human CYP3A4, nmol metab./incub.: 2.3 nmol metab./incub.
Human FMO1
  Human FMO1, nmol metab./incub.: 0.33 nmol metab./incub.

## Cc1cc(C)cc(OCC(N)c2ccccc2)c1.Cl (racemic) [Compound 70, (rac)-(+)-2-(3,5-dimethylphenoxy)-1-phenylethanamine hydrochloride]
[1]; ratio peak IC50/late IC50
  DNap/NaL: 103
[1]; ratio peak/late IC50, Example 2, hydrochloride
  DNap/NaL: 104 and 100.5
[2]
  IC50: 18.9 µM
[2]; Peak Na+ (INaP) IC50
  IC50: 20.1 µM
[10]; potency relative to Mexiletine
  Ratio Mex INaL/Lead INaL: 94.4
[10]; read-out: IC50 for INaL
  IC50: 0.54 µM
[10]; read-out: IC50 for INaP
  IC50: 171 µM
[11]
  metabolism in human liver microsomes judged by HPLC: metabolized
[11]; human, liver microsomes, pH 7.4, liver microsomes + NADPH, species (human), read-out: metabolic stability in liver microsomes T1/2
  half-life at 50 μM: > 0.0417 days
[8]
  metabolism in human liver S-9 judged by HPLC: detectably metabolized
[12]
  half-life at 100 μM: > 30 days
Male BALBc mice; mouse, in vivo, ip
  behavioral/toxic effects at 200 mg/kg: slight lethargy
CYP2D6
  nmols metabolized, CYP2D6: 4.6 nmols
  nmols/μg CYP, CYP2D6: .345 nmols/μg CYP
  pmols product/μg CYP/min, CYP2D6: 6.92 pmols product/μg CYP/min
[3]
  solubility (in words): good solubility
[4]; 'No AP' wraps to 'No AP Prolong.'
  WT-Prolong. Dose: No AP
[4]; normal hiPSC cardiomyocytes
  WT-Fold Prolongation: None
  Cessation of Beating: 66 µM
  WT-Prolongation Dose: None
[4]; deuterated vs non-deuterated
  WT-Cess. Dose: 66 µM
[4]; deuterated vs non-deuterated, 'No AP' wraps to 'No AP prolongation'
  WT-EC50 (μM)-Prolong.: No AP
[5]; [15]
  LQT-Fold Shortening: 1.279
  LQT-Shortening Dose: 7.4 µM
[5]; LQT3 cardiomyocytes
  LQT-Cessation Dose: 66 µM
  LQT-Fold Shortening: 1.279
[5]; deuterated vs non-deuterated
  LQT-Cess. Dose: 66 µM
[13]; read-out: LQT-EC50 (μM)-Shortening
  EC50: < 0.8 µM
[13]
  IC50: 0.0013 µM
[7]
  IC50: 6.2 µM
[7]; Example 2
  IC50: 6 µM and 6.2 µM
[7]; ratio hERG IC50/late Na IC50
  DKr/NaL: 34.0
[7]; ratio peak Na IC50/hERG IC50
  DNaP/Kr: 3.0
[7]; ratio, Example 2
  DKr/NaL: 34.0
  DNaP/Kr: 3.0

## Cl.[2H]C(N)(COc1c(C)cccc1C)c1ccccc1 (stereo not drawn) [Compound 136]
[8]
  Human S-9, nmol metab./incub.: 1.4 nmol metab./incub.
[9]
  Mouse S-9, nmol metab./incub.: 1.4 nmol metab./incub.
CYP3A4
  Human CYP3A4, nmol metab./incub.: 1.5 nmol metab./incub.
Human FMO1
  Human FMO1, nmol metab./incub.: 0.06 nmol metab./incub.

## Cc1ccncc1OCC(N)c1ccccc1.Cl (stereo not drawn) [Compound 88]
[1]
  IC50: 1.04 µM
[1]; [14]
  DNap/NaL: 87.4
[2]; Peak Na+ (INaP) IC50
  IC50: 90.9 µM
Male BALBc mice; mice, i.p.
  behavioral/toxic effects at 200 mg/kg: slight lethargy
  tolerability: well-tolerated
[3]
  solubility (in words): good solubility
[4]
  Cessation of Beating: None
[4]; normal hiPSC cardiomyocytes
  WT-Fold Prolongation: 1.52
[5]
  LQT-Cessation Dose: None
[5]; LQT3 cardiomyocytes
  LQT-Fold Shortening: 1.287
[6]
  DKr/NaL: 10.7
  DNaP/Kr: 7.7
[13]
  IC50: 12.8 µM
[7]; Example 2
  IC50: 11.2 µM

## COCCNC(COc1ccccc1C(F)(F)F)c1ccccc1.Cl (stereo not drawn) [Compound 105]
[1]
  IC50: 1.14 µM
[1]; [14]
  DNap/NaL: 38.9
[2]; Peak Na+ (INaP) IC50
  IC50: 44.3 µM
Male BALBc mice; mice, i.p.
  tolerability: well-tolerated
[3]
  solubility (in words): good solubility
[6]
  DKr/NaL: 18.3
  DNaP/Kr: 2.11
[7]; Example 2
  IC50: 20.9 µM
